# How the values were obtained:
# Format in all cases: cell-based
# [1] = target: Gastrin-releasing peptide receptor (Homo sapiens, UniProt P30550); assay: Displacement of [125I]-Tyr4-BBN from human GRPR overexpressed in human T47D cells
# [2] = target: T1, Neuropeptide Y receptor type 1 (Homo sapiens, UniProt P25929); assay: Displacement of [125I]-NPY from Y1 receptor in human MCF7 cells in presence of 1 uM BBN
# T1 sequence (P25929 whole entry): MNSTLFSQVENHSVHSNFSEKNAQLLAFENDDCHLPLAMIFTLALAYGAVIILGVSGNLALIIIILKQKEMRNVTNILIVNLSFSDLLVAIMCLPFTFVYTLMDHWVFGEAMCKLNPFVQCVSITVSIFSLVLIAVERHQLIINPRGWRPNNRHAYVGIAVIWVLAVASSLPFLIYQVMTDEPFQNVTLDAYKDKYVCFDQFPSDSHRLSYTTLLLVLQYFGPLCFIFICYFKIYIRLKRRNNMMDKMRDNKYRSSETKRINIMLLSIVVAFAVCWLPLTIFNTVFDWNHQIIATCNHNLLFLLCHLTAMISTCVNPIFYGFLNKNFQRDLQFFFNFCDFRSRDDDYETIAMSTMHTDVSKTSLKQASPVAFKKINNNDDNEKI
# [3] = target: T1, Neuropeptide Y receptor type 1; assay: Binding affinity to Y1 receptor in human SK-N-MC cells
# Chain of Gastrin-releasing peptide receptor (P30550 whole entry): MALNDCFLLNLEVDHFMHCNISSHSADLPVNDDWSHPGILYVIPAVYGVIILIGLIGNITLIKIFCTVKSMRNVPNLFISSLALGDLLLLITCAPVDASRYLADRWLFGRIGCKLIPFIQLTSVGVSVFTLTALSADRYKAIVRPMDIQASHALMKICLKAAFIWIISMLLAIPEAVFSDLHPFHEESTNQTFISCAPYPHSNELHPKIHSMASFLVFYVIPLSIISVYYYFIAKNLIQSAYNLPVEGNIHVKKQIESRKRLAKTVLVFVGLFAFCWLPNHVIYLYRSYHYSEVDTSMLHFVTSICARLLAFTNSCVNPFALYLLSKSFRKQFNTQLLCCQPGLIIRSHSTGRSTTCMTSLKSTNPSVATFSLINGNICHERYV
compound,measurement,setting,value
CC[C@H](C)[C@H](N)C(=O)N[C@@H](CC(N)=O)C(=O)N1CCC[C@H]1C(=O)N[C@@H](CCCCNC(=O)COCCOCCNC(=O)[C@H](CCCCNC(=O)COCC(=O)NCCOCCOCC(=O)NCC(=O)Nc1ccc(C(=O)N[C@@H](CCC(N)=O)C(=O)N[C@@H](Cc2c[nH]c3ccccc23)C(=O)N[C@@H](C)C(=O)N[C@H](C(=O)NCC(=O)N[C@@H](Cc2cnc[nH]2)C(=O)N[C@@H](CC(C)C)C(=O)N[C@@H](CCSC)C(N)=O)C(C)C)cc1)NC(=O)CN1CCN(CC(=O)O)CCN(CC(=O)O)CCN(CC(=O)O)CC1)C(=O)N[C@@H](Cc1ccc(O)cc1)C(=O)N[C@@H](CCCN=C(N)N)C(=O)N[C@@H](CC(C)C)C(=O)N[C@@H](CCCN=C(N)N)C(=O)N[C@@H](Cc1ccc(O)cc1)C(N)=O,IC50,[1],18 nM
same,IC50,[2],80 nM
same,IC50,[3],74 nM

# — ChEMBL document CHEMBL2311470, “Heterobivalent dual-target probe for targeting GRP and Y1 receptors on tumor cells” (Bioorg Med Chem Lett, 2013)
